We go through 22 compounds from patent US9725465B2, “Biaryl acetamide compounds and methods of use thereof” (Ambit Biosciences Corporation, priority 2013, dated 2017).

The target in test [1] is FLT3-ITD (Homo sapiens (Human), UniProt P36888, INS600HVDFREYEYD). As to the kind of experiment: pFLT3 MSD assay, Ba/F3 FLT3-ITD. Format: cell-based. The settings on record: Ba/F3 FLT3-ITD cells, 2 hours, read-out: BaF3-FLT3-ITD pFlt3 IC50.
For test [2], the target named is FLT3 kinase (Homo sapiens (Human), UniProt P36888). As to the kind of experiment: Competition binding assay (Kd), FLT3. As to conditions: competition binding assay.
The target in test [3] is KIT kinase (Homo sapiens (Human), UniProt P10721). The test is described as follows: Competition binding assay (Kd), KIT. The settings on record: competition binding assay. In outline:
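Kinase, as T7 phage fusion or HEK-293-expressed DNA-tagged protein, competed off immobilised ligand beads by test compound (eleven-point threefold dilutions, from 100× DMSO stocks). Eluted kinase quantified by qPCR to derive Kd; DMSO used as control.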

The term IC50 denotes the concentration that inhibits the measured activity by half. What is called Kd is a measure of binding affinity in units of concentration.

Sequence of KIT kinase (P10721 26-976): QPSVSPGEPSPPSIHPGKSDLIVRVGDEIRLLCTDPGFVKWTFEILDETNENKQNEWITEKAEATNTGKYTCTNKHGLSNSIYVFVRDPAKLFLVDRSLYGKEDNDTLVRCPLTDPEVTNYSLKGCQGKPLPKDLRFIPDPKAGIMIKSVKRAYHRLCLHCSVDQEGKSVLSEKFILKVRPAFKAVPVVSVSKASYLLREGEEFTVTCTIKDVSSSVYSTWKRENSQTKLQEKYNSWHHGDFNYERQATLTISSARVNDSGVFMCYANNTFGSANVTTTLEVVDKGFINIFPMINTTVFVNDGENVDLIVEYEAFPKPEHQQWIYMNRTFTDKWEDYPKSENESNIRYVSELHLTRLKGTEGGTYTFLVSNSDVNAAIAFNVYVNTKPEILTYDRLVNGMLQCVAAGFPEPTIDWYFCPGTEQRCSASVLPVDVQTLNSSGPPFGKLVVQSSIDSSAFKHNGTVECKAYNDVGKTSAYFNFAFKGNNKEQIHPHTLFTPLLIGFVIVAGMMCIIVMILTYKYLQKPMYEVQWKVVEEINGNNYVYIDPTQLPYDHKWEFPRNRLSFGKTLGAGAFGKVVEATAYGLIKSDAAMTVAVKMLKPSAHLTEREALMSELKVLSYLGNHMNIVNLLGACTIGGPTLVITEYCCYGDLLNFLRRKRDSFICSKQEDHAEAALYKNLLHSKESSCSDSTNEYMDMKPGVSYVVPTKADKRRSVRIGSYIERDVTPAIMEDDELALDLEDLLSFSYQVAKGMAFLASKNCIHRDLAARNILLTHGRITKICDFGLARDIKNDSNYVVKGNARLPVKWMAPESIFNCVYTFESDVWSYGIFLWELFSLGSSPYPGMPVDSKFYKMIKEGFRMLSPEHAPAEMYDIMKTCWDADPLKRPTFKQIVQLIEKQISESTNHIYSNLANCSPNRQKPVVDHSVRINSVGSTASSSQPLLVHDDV
Sequence of FLT3 kinase (P36888 27-993): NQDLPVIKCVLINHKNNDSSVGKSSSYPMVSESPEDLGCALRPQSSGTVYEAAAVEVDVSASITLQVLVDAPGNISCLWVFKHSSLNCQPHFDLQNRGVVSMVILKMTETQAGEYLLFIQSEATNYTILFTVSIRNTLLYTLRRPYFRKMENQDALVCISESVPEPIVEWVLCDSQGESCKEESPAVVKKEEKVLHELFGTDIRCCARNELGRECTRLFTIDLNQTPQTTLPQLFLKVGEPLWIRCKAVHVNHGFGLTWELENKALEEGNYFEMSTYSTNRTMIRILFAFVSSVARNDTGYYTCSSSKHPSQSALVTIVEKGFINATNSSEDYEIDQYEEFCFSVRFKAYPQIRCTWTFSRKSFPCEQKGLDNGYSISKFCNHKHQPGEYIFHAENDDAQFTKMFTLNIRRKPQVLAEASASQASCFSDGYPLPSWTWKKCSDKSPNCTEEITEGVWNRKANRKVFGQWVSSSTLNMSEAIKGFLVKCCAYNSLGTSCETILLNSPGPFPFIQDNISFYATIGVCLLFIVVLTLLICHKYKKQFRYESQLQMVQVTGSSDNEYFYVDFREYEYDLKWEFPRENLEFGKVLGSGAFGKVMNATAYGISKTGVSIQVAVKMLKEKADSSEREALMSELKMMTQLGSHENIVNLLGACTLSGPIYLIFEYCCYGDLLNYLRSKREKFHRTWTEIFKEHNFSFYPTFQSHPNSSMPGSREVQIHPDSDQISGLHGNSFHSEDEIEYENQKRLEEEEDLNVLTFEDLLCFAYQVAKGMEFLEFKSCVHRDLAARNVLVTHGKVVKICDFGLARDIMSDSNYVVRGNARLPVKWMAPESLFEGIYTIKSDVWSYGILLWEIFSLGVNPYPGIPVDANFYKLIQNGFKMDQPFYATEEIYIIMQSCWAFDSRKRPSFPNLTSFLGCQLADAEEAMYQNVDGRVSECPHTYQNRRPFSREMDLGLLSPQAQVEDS
Sequence of FLT3-ITD (P36888 other isoform, or with tags, fused parts or gaps limits assumed, stated change not applied): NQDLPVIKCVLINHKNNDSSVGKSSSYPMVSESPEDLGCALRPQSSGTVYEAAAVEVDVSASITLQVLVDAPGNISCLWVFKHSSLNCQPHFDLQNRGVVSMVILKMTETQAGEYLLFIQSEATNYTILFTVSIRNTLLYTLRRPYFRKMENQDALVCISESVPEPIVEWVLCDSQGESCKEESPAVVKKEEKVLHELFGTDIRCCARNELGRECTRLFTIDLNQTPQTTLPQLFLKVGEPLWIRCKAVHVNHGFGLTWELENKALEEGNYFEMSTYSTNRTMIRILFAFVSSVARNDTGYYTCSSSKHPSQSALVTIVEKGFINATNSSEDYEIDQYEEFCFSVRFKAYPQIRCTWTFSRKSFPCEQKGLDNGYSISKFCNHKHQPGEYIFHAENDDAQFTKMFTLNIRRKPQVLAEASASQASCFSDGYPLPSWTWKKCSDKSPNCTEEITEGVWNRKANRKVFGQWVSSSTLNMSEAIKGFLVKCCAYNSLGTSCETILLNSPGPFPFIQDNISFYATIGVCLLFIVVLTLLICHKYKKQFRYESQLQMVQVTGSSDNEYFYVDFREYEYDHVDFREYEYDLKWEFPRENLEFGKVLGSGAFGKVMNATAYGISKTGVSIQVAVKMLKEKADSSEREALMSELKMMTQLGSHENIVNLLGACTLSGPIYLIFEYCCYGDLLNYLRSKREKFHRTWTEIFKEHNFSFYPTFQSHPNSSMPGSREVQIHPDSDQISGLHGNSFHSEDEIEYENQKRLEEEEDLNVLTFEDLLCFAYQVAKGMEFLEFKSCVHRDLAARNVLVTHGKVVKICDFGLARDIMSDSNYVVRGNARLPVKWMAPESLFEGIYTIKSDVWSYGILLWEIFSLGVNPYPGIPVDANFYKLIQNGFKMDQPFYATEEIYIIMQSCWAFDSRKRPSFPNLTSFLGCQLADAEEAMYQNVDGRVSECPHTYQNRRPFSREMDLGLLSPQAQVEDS

Consider `O=C(Cc1ccc(-c2cnc3[nH]c(C(=O)NC4CNC4)cc3c2)cc1F)Nc1cc(C2(C(F)(F)F)CC2)on1` [Example 112, N-(azetidin-3-yl)-5-[3-fluoro-4-[2-oxo-2-[[5-[1-(trifluoromethyl)cyclo-propyl]isoxazol-3-yl]amino]ethyl]phenyl]-1H-pyrrolo[2,3-b]pyridine-2-carboxamide], for which the IC50 in test [1] was less than 10 nM. Besides, the Kd in test [2] and in test [3] was less than 5 nM each time.
As to `CN1CC(NC(=O)c2cc3cc(-c4ccc(CC(=O)Nc5cc(C6(C(F)(F)F)CC6)on5)c(F)c4)cnc3[nH]2)C1` [Example 113, 5-[3-fluoro-4-[2-oxo-2-[[5-[1-(trifluoromethyl)cyclo-propyl]isoxazol-3-yl]amino]ethyl]phenyl]-N-(1-methylazetidin-3-yl)-1H-pyrrolo[2,3-b]pyridine-2-carboxamide], the IC50 in test [1] was less than 10 nM. For the same compound, the Kd in test [2] and in test [3] was less than 5 nM throughout.
For the compound `CC(C)(c1cc(NC(=O)Cc2ccc(-c3cnc4[nH]nc(OCCOC(F)(F)F)c4c3)cc2F)no1)C(F)(F)F` [Example 114, 2-[2-fluoro-4-[3-[2-(trifluoromethoxy)ethoxy]-1H-pyrazolo[3,4-b]pyridin-5-yl]phenyl]-N-[5-(2,2,2-trifluoro-1,1-dimethyl-ethyl)isoxazol-3-yl]acetamide], the IC50 in test [1] was less than 10 nM. Besides, the Kd in test [2] was less than 5 nM; in test [3] it was 5 to 20 nM.
For `COc1cc2ncc(-c3ccc(CC(=O)Nc4cc(C(C)(C)C(F)(F)F)on4)c(F)c3)cc2c(OC)c1OC` [Example 115, 2-[2-fluoro-4-(5,6,7-trimethoxy-3-quinolyl)phenyl]-N-[5-(2,2,2-trifluoro-1,1-dimethyl-ethyl)isoxazol-3-yl]acetamide] the same measures were less than 10 nM, less than 5 nM and 5 to 20 nM.
For `COc1cc2ncc(-c3ccc(CC(=O)Nc4cc(C(C)(C)C)on4)cc3)cc2c(OC)c1OC` [Example 116, N-(5-tert-butylisoxazol-3-yl)-2-[4-(5,6,7-trimethoxy-3-quinolyl)phenyl]acetamide] the same measures were less than 10 nM, less than 5 nM and less than 5 nM.
For `CN(C)NC(=O)c1cc2cc(-c3ccc(CC(=O)Nc4cc(C5(C(F)(F)F)CC5)on4)c(F)c3)cnc2[nH]1` [Example 117, 2-[4-[2-(dimethylaminocarbamoyl)-1H-pyrrolo[2,3-b]pyridin-5-yl]-2-fluoro-phenyl]-N-[5-[1-(trifluoro-methyl)cyclopropyl]isoxazol-3-yl]acetamide] the same measures were less than 10 nM, less than 5 nM and less than 5 nM.
For the compound `CCOc1cc2ncc(-c3ccc(CC(=O)Nc4cc(C5(C(F)(F)F)CC5)on4)c(F)c3)nc2cc1OCC` [Example 118, 2-[4-(6,7-diethoxyquinoxalin-2-yl)-2-fluoro-phenyl]-N-[5-[1-(trifluoromethyl)cyclo-propyl]isoxazol-3-yl]acetamide], the IC50 in test [1] is less than 10 nM. Also, the dissociation constant (Kd) in test [2] and in test [3] was less than 5 nM each time.
For the compound `O=C(Cc1ccc(-c2cnc3cc4c(cc3n2)OCO4)cc1F)Nc1cc(C2(C(F)(F)F)CC2)on1` [Example 119, 2-[4-([1,3]dioxolo[4,5-g]quinoxalin-6-yl)-2-fluoro-phenyl]-N-[5-[1-(trifluoro-methyl)cyclopropyl]isoxazol-3-yl]acetamide], the IC50 in test [1] was less than 10 nM. Also, the Kd in test [2] and in test [3] was less than 5 nM in each case.
On to `COCCOc1cc2ncc(-c3ccc(CC(=O)Nc4cc(C(C)(C)C)on4)cc3)nc2cc1OCCOC` [Example 120, 2-[4-[6,7-bis(2-methoxyethoxy)quinoxalin-2-yl]phenyl]-N-(5-tert-butylisoxazol-3-yl)acetamide], for which, in test [1], the IC50 was less than 10 nM. Also, the Kd in test [2] and in test [3] was less than 5 nM each time.
As to `O=C(Cc1ccc(-c2cnc3cc4c(cc3n2)OC[C@@H](CO)O4)cc1F)Nc1cc(C2(C(F)(F)F)CC2)on1` [Example 121, 2-[2-fluoro-4-[(2R)-2-(hydroxymethyl)-2,3-dihydro-[1,4]dioxino[2,3-g]quinoxalin-7-yl]phenyl]-N-[5-[1-(trifluoro-methyl)cyclopropyl]isoxazol-3-yl]acetamide], in test [1], the IC50 was less than 10 nM. The Kd in test [2] and in test [3] was less than 5 nM throughout.
As for `O=C(Cc1ccc(-c2cnc3cc4c(cc3n2)O[C@H](CO)CO4)cc1F)Nc1cc(C2(C(F)(F)F)CC2)on1` [Example 122, 2-[2-fluoro-4-[(3R)-3-(hydroxymethyl)-2,3-dihydro-[1,4]dioxino[2,3-g]quinoxalin-7-yl]phenyl]-N-[5-[1-(trifluoro-methyl)cyclopropyl]isoxazol-3-yl]acetamide], in test [1], the IC50 was less than 10 nM. For the same compound, the dissociation constant (Kd) in test [2] and in test [3] was less than 5 nM in each case.
Take `COc1cc2nc(N)c(-c3ccc(CC(=O)Nc4cc(C5(C(F)(F)F)CC5)on4)c(F)c3)nc2cc1OC` [Example 123, 2-[4-(3-amino-6,7-dimethoxy-quinoxalin-2-yl)-2-fluoro-phenyl]-N-[5-[1-(trifluoro-methyl)cyclopropyl]isoxazol-3-yl]acetamide]: the IC50 in test [1] is less than 10 nM. The Kd in test [2] and in test [3] was less than 5 nM each time.
In the case of `COc1cc2nc(OC)c(-c3ccc(CC(=O)Nc4cc(C5(C(F)(F)F)CC5)on4)c(F)c3)nc2cc1OC` [Example 124, 2-[2-fluoro-4-(3,6,7-trimethoxyquinoxalin-2-yl)phenyl]-N-[5-[1-(trifluoro-methyl)cyclopropyl]isoxazol-3-yl]acetamide], in test [1], the IC50 lay within 10 to 20 nM. Further, the Kd is less than 5 nM in test [2] and 5 to 20 nM in test [3].
The like results for `COCCOc1cc2ncc(-c3ccc(CC(=O)Nc4cc(C5(C(F)(F)F)CC5)on4)c(F)c3)nc2cc1OCCOC` [Example 125, 2-[4-[6,7-bis(2-methoxyethoxy)quinoxalin-2-yl]-2-fluoro-phenyl]-N-[5-[1-(trifluoro-methyl)cyclopropyl]isoxazol-3-yl]acetamide] were, in that order, less than 10 nM, less than 5 nM and less than 5 nM.
The like results for `COCCOc1cc2ncc(-c3ccc(CC(=O)Nc4cc(C5(C(F)(F)F)CC5)on4)c(F)c3)cc2cc1OC` [Example 126, 2-[2-fluoro-4-[6-methoxy-7-(2-methoxyethoxy)-3-quinolyl]phenyl]-N-[5-[1-(trifluoromethyl)cyclo-propyl]isoxazol-3-yl]acetamide] were, in that order, less than 10 nM, less than 5 nM and less than 5 nM.
For `COc1cc2cc(-c3ccc(CC(=O)Nc4cc(C5(C(F)(F)F)CC5)on4)c(F)c3)cnc2cc1OCCOC(C)=O` [Example 127, 2-[[3-[3-fluoro-4-[2-oxo-2-[[5-[1-(trifluoro-methyl)cyclopropyl]isoxazol-3-yl]amino]ethyl]phenyl]-6-methoxy-7-quinolyl]oxy]ethyl acetate] the same measures were less than 10 nM, less than 5 nM and less than 5 nM.
As for `COc1cc2cc(-c3ccc(CC(=O)Nc4cc(C5(C(F)(F)F)CC5)on4)c(F)c3)cnc2cc1OC` [Example 128, 2-[4-(6,7-dimethoxy-3-quinolyl)-2-fluoro-phenyl]-N-[5-[1-(trifluoro-methyl)cyclopropyl]isoxazol-3-yl]acetamide], the IC50 in test [1] is less than 10 nM. The Kd in test [2] and in test [3] was less than 5 nM throughout.
Consider `COc1cc2cc(-c3ccc(CC(=O)Nc4cc(C(C)(C)C(F)(F)F)on4)c(F)c3)cnc2cc1OC` [Example 129, 2-[4-(6,7-dimethoxy-3-quinolyl)-2-fluoro-phenyl]-N-[5-(2,2,2-trifluoro-1,1-dimethyl-ethyl)isoxazol-3-yl]acetamide], for which the IC50 in test [1] was less than 10 nM. Also, the Kd in test [2] and in test [3] was less than 5 nM throughout.
With `COc1cc2nc(-c3ccc(CC(=O)Nc4cc(C5(C(F)(F)F)CC5)on4)c(F)c3)cnc2cc1OCCOC(C)=O` [Example 130, 2-[2-[3-fluoro-4-[2-oxo-2-[[5-[1-(trifluoromethyl)cyclo-propyl]isoxazol-3-yl]amino]ethyl]phenyl]-7-methoxy-quinoxalin-6-yl]oxyethyl acetate], the IC50 in test [1] was less than 10 nM. Also, the Kd in test [2] and in test [3] was less than 5 nM each time.
Take `COc1cc2nc(-c3ccc(CC(=O)Nc4cc(C5(C(F)(F)F)CC5)on4)c(F)c3)cnc2cc1OCCO` [Example 131, 2-[2-fluoro-4-[6-(2-hydroxyethoxy)-7-methoxy-quinoxalin-2-yl]phenyl]-N-[5-[1-(trifluoromethyl)cyclo-propyl]isoxazol-3-yl]acetamide]: the IC50 in test [1] is less than 10 nM. Moreover, the Kd in test [2] and in test [3] was less than 5 nM in each case.
Regarding `CCOC(=O)c1nc2cc(OC)c(OC)cc2nc1-c1ccc(CC(=O)Nc2cc(C3(C(F)(F)F)CC3)on2)c(F)c1` [Example 132, ethyl 3-[3-fluoro-4-[2-oxo-2-[[5-[1-(trifluoro-methyl)cyclopropyl]isoxazol-3-yl]amino]ethyl]phenyl]-6,7-dimethoxy-quinoxaline-2-carboxylate], the IC50 in test [1] was more than 50 nM. The Kd in test [2] and in test [3] was more than 50 nM each time.
Regarding `COc1cc2nc(C(=O)O)c(-c3ccc(CC(=O)Nc4cc(C5(C(F)(F)F)CC5)on4)c(F)c3)nc2cc1OC` [Example 133, 3-[3-fluoro-4-[2-oxo-2-[[5-[1-(trifluoro-methyl)cyclopropyl]isoxazol-3-yl]amino]ethyl]phenyl]-6,7-dimethoxy-quinoxaline-2-carboxylic acid], the IC50 in test [1] was more than 50 nM. Also, the Kd in test [2] is 20 to 50 nM; in test [3] it was more than 50 nM.
